Results published in PubChem BioAssay AID328 (DTP/NCI, 2004).
“And” between values parts separate entries of the source, which are not always exact repeats. Identical values can stand only once. Inconclusive results and toxic doses are left out.

System: BDF1 mice, P388 leukemia ip, median survival T/C
Test: NCI In Vivo Anticancer Drug Screen. Data for tumor model P388 Leukemia (intraperitoneal) in B6D2F1 (BDF1) mice
Details: endpoint: median survival time, higher = longer survival
Outline: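 Steps: implant the tumour, treat one group with compound and another with vehicle, record survival, then divide treated by control.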

[1] = dose: 100.0 mg/kg/injection, schedule: Q04DX003 (ip), vehicle: saline with Tween-80
[2] = dose: 200.0 mg/kg/injection, schedule: Q04DX003 (ip), vehicle: saline with Tween-80
[3] = dose: 400.0 mg/kg/injection, schedule: Q04DX003 (ip), vehicle: saline with Tween-80
[4] = dose: 100.0 mg/kg/injection, schedule: Q01DX009 (ip), vehicle: saline with Tween-80
[5] = dose: 200.0 mg/kg/injection, schedule: Q01DX009 (ip), vehicle: saline with Tween-80

SMILES: COc1ccc(C(=O)c2cccs2)cc1
- T/C [1]: 100 % of control
- T/C [2]: 100 % of control
- T/C [3]: 86 % of control

SMILES: COc1cccc(C(O)c2ccncc2)c1OC (stereo not drawn)
- T/C (dose: 25.0 mg/kg/injection, schedule: Q04DX003 (ip), vehicle: water): 113 % of control
- T/C (dose: 50.0 mg/kg/injection, schedule: Q04DX003 (ip), vehicle: water): 108 % of control
- T/C (dose: 100.0 mg/kg/injection, schedule: Q04DX003 (ip), vehicle: water): 103 % of control
- T/C (dose: 200.0 mg/kg/injection, schedule: Q04DX003 (ip), vehicle: water): 90 % of control
- T/C (dose: 400.0 mg/kg/injection, schedule: Q04DX003 (ip), vehicle: water): 97 % of control

SMILES: CCCOC1=C(N2CC2)C(=O)C(OCCC)=C(N2CC2)C1=O
- T/C (dose: 2.2 mg/kg/injection, schedule: Q04DX003 (ip), vehicle: saline with Tween-80): 117 % of control
- T/C (dose: 5.55 mg/kg/injection, schedule: Q04DX003 (ip), vehicle: saline with Tween-80): 200 % of control
- T/C (dose: 7.5 mg/kg/injection, schedule: Q04DX003 (ip), vehicle: saline with Tween-80): 165 % of control
- T/C (dose: 8.33 mg/kg/injection, schedule: Q04DX003 (ip), vehicle: saline with Tween-80): 163 % of control and 200 % of control
- T/C (dose: 12.5 mg/kg/injection, schedule: Q04DX003 (ip), vehicle: saline with Tween-80): 186 % of control and 200 % of control and 218 % of control
- T/C (dose: 18.7 mg/kg/injection, schedule: Q04DX003 (ip), vehicle: saline with Tween-80): 245 % of control and 260 % of control
- T/C (dose: 25.0 mg/kg/injection, schedule: Q04DX003 (ip), vehicle: saline with Tween-80): 163 % of control

SMILES: Cc1cccc(NC(=O)N(CCCl)N=O)c1
- T/C (dose: 0.4 mg/kg/injection, schedule: Q01DX009 (ip), vehicle: saline): 157 % of control
- T/C (dose: 38.0 micrograms/kg/injection, schedule: Q04DX003 (ip), vehicle: saline): 100 % of control
- T/C (dose: 75.0 micrograms/kg/injection, schedule: Q04DX003 (ip), vehicle: saline): 109 % of control
- T/C (dose: 150.0 micrograms/kg/injection, schedule: Q04DX003 (ip), vehicle: saline): 104 % of control
- T/C (dose: 300.0 micrograms/kg/injection, schedule: Q04DX003 (ip), vehicle: saline): 109 % of control

SMILES: ClC(Cl)=C1OCCO1
- T/C (dose: 50.0 mg/kg/injection, schedule: Q01DX009 (ip), vehicle: saline with Tween-80): 104 % of control
- T/C [4]: 98 % of control
- T/C [5]: 100 % of control

SMILES: O=[N+]([O-])c1ccccc1CN1c2ccccc2N=C2c3ccccc3CC21 (stereo not drawn)
- T/C (dose: 100.0 mg/kg/injection, schedule: Q04DX003 (ip), vehicle: saline sonified): 116 % of control
- T/C (dose: 200.0 mg/kg/injection, schedule: Q04DX003 (ip), vehicle: saline sonified): 100 % of control
- T/C (dose: 400.0 mg/kg/injection, schedule: Q04DX003 (ip), vehicle: saline sonified): 91 % of control

SMILES: COc1cc2c(cc1OC)-c1cc3cc(OC)c(OC)cc3c(CCC(=O)O)[n+]1CC2 (tested in a mixture with another compound)
- T/C (dose: 100.0 mg/kg/injection, schedule: Q01DX009 (ip), vehicle: saline): 106 % of control
- T/C (dose: 200.0 mg/kg/injection, schedule: Q01DX009 (ip), vehicle: saline): 92 % of control
- T/C (dose: 400.0 mg/kg/injection, schedule: Q01DX009 (ip), vehicle: saline): 90 % of control

SMILES: O=C(NC(Cc1ccccc1)C(=O)O)OCc1ccccc1 (stereo not drawn)
- T/C [4]: 120 % of control
- T/C [1]: 92 % of control
- T/C [2]: 100 % of control
- T/C [3]: 107 % of control

SMILES: NC(Cc1ccc(O)cc1)C(=O)O (stereo not drawn)
- T/C [4]: 100 % of control
- T/C [1]: 100 % of control
- T/C [5]: 92 % of control
- T/C [2]: 91 % of control
- T/C [3]: 95 % of control
